According to US12559463B2, “Crystalline forms of a JAK2 inhibitor” (Impact Biomedicines, Inc., priority 2019, dated 2026):
Where two headings read alike, the source gives them in different places.

Tests used:
[1] = additive used in the salt screen, cited from earlier work
[2] = pKa of basic sites / additives; assay type: physicochemical; conditions: two basic sites for salt formation
Source text: Fifty-three counterions and stoichiometric combinations were selected. Table 1 provides a summary of the additives, pKa values, method of dosing and equivalents dosed for each additive.

| Structure (SMILES) | pKa ([1]; first pKa value) | pKa ([1]; second pKa value) | pKa [2] | pKa ([2]; read-out: pKa) |
| --- | --- | --- | --- | --- |
| O=C(O)C(O)c1ccccc1 (racemic) [DL-Mandelic acid] | 3.4 | – | – | – |
| CC1(C)C2CCC1(CS(=O)(=O)O)C(=O)C2 (stereo not shown) [Camphor-10-sulfonic acid] | −2.2 | – | – | – |
| CC1(C(=O)O)CCC(C(=O)O)C1(C)C (stereo not shown) [Camphoric acid] | 4.7 | 5.8 | – | – |
| Cc1cnc(Nc2ccc(OCCN3CCCC3)cc2)nc1Nc1cccc(S(=O)(=O)NC(C)(C)C)c1 [Compound 1, N-tert-butyl-3-[(5-methyl-2-{[4-(2-pyrrolidin-1-ylethoxy)phenyl]amino}pyrimidin-4-yl)amino]benzenesulfonamide] | – | – | 6.4 | 9.3 |
| O=C(O)[C@@H](O)c1ccccc1 [L-Mandelic acid] | 3.4 | – | – | – |
